Legend:
TRKA-wt = molecular target: T1, TRKA-wt (Homo sapiens, UniProt P04629); assay: Biochemical kinase assay, TRKA-wt kinase domain; conditions: apparent inhibitory constant, Morrison equation; ATP 2 mM in substrate solution; read-out: TRKA-wt Ki^app
T1 construct: or TRKA-wt (1 nM, BPS Bio, 40280) kinase domains in buffer; purchased BPS Bio 40280
Procedure, shortened: (§1)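 Kinase domains (in kinase solution: ROS1-G2032R 0.5 nM, ROS1-wt 0.6 nM, TRKA 1 nM, ALK L1196M/G1202R 3 nM) were mixed with compound and a substrate solution of 2 mM ATP plus 26 μM fluorogenic AQT0101 (ALK, ROS1) or AQT0104 (TRKA) in HEPES pH 7.5/MgCl2. Fluorescence was followed for 120 min at 30° C; Ki^app was obtained by Morrison fit of initial rates.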

[1] = molecular target: T2, Ba/F3 cells EML4-ALK wt (variant 1) (Homo sapiens, UniProt Q9UM73); assay: Ba/F3 cell proliferation assay, EML4-ALK wt (variant 1); type: cell-based; conditions: 72 hours, CellTiter-Glo
T2 construct: echinoderm microtubule-associated protein-like 4 (EML4) gene and the ALK tyrosine kinase domain; host or cells: Ba/F3 (RIKEN), retroviral pMSCV-puro; the other entry of the earlier key: EML4 (Q9HC35, Echinoderm microtubule-associated protein-like 4)
T2 sequence (Q9UM73 with tags, fused parts or gaps): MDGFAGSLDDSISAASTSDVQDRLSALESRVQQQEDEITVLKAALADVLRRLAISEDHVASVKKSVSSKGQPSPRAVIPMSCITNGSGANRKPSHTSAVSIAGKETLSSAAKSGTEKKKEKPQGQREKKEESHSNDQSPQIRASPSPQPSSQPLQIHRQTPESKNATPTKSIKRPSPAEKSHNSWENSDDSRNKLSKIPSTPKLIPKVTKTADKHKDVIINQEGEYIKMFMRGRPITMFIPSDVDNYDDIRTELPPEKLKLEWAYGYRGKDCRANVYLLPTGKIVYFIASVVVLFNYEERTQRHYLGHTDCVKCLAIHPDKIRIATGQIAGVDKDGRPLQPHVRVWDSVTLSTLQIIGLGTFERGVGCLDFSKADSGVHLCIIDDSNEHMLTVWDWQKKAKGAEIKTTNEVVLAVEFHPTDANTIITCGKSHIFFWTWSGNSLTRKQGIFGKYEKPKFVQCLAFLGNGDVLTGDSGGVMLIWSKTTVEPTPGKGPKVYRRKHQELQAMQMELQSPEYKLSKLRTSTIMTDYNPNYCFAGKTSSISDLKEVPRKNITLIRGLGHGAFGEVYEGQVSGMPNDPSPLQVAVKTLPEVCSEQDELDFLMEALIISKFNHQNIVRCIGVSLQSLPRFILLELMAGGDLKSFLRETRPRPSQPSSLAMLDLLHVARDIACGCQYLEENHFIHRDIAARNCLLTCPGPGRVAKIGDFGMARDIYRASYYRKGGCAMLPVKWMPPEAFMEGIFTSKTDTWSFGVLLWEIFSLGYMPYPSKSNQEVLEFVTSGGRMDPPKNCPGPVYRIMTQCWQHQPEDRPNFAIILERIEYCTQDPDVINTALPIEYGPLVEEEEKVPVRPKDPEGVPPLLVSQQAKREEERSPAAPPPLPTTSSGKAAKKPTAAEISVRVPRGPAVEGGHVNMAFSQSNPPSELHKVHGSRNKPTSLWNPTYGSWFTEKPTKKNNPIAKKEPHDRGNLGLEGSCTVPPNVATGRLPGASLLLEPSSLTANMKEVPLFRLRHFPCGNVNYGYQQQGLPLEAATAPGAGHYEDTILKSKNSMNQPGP
Procedure, shortened: (§2)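 Luminescence from CellTiter-Glo after 72 hours of compound exposure measured viability of IL-3-independent Ba/F3 cells carrying the retrovirally introduced fusion. Cells were plated at 1,000 per well one day before 3-fold serial dilutions were added. IC50 values came from four-parameter logistic regression.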

[2] = tested on: TPM3-NTRK1-wt IC50 / primary target IC50 (e.g. CD74-ROS1-wt); assay: TRKA selectivity in Ba/F3 cells (TRKA potency divided by primary target potency); type: cell-based; conditions: for TPM3-NTRK1-wt/CD74-ROS1-G2032R selectivity ratio: TRKA potency / CD74-ROS1-G2032R potency; for TPM3-NTRK1-wt/CD74-ROS1-wt selectivity ratio: TRKA potency / CD74-ROS1-wt potency; for TPM3-NTRK1-wt/EML4-ALK-L1196M-G1202R selectivity ratio: TRKA potency / EML4-ALK-L1196M-G1202R potency; for TPM3-NTRK1-wt/EML4-ALK-wt selectivity ratio: TRKA potency / EML4-ALK-wt potency
Protocol: TRKA selectivity was calculated by dividing a compound's TRKA potency by its primary target potency (e.g. TPM3-NTRK1-wt IC50/CD74-ROS1-wt IC50). Compound selectivity can be interpreted by binning ratio values: bin A for very high selectivity, ratio >30-fold; bin B for high selectivity, ratio >10-fold; bin C for moderate selectivity, ratio ≥1; and bin D for low selectivity, ratio <1. […] (nd=not determined).

[3] = molecular target: T3, Ba/F3 cells CD74-ROS1 wild-type (wt) (Homo sapiens, UniProt P08922); assay: Ba/F3 cell proliferation assay, CD74-ROS1 wild-type; type: cell-based; conditions: 72 hours, CellTiter-Glo
T3 construct: fusion of the C-terminus of ROS1 with the N-terminus of various partner proteins; host or cells: Ba/F3 (RIKEN), retroviral pMSCV-puro; the other entry of the earlier key: CD74 (P04233, HLA class II histocompatibility antigen gamma chain)
T3 sequence (P08922 1883-2347 limits assumed): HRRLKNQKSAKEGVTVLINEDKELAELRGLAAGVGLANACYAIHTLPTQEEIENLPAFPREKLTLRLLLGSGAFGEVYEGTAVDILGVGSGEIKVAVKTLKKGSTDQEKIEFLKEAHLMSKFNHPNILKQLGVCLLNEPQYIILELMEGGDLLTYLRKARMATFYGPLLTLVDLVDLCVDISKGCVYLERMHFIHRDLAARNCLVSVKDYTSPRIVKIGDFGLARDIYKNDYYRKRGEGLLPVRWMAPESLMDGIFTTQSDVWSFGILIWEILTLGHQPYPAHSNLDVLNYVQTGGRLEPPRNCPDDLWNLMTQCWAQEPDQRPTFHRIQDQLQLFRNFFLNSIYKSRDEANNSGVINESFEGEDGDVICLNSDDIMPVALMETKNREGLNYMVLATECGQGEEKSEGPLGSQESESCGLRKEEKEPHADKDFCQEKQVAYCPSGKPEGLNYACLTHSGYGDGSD
Procedure, shortened: (§3)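 First, retrovirally infected Ba/F3 cells were made IL-3-independent and selected with puromycin (0.8 μg/mL). Next, cells were plated and rested one day. Then compounds in 3-fold dilutions were added for 72 hours before CellTiter-Glo readout.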

ALK-wt = molecular target: T4, ALK-wt (Homo sapiens, UniProt Q9UM73); assay: Biochemical kinase assay, ALK-wt kinase domain; conditions: apparent inhibitory constant, Morrison equation; ATP 2 mM in substrate solution; read-out: ALK-wt Ki^app
T4 construct: purchased Carna 08-518
T4 sequence (Q9UM73 1116-1392 limits assumed): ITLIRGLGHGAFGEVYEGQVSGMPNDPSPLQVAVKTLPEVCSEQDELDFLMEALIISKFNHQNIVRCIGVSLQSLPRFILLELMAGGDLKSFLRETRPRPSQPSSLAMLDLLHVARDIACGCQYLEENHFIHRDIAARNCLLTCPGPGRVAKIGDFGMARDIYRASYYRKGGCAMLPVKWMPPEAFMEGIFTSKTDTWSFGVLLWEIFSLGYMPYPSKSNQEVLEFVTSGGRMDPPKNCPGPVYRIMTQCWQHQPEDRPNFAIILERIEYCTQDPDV
Procedure, shortened: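 Apparent Ki values come from fitting initial reaction rates against inhibitor concentration to the Morrison equation. Rates were taken from the linear phase of fluorogenic substrate phosphorylation (AQT0101 for ALK and ROS1, AQT0104 for TRKA; 26 μM in substrate solution with 2 mM ATP), monitored at 485 nm over 120 min at 30° C.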

[4] = molecular target: T5, Ba/F3 cells CD74-ROS1 G2032R (Homo sapiens, UniProt P08922, G2032R); assay: Ba/F3 cell proliferation assay, CD74-ROS1 G2032R; type: cell-based; conditions: 72 hours, CellTiter-Glo
T5 construct: fusion of the C-terminus of ROS1 with the N-terminus of various partner proteins; host or cells: Ba/F3 (RIKEN), retroviral pMSCV-puro; the other entry of the earlier key: CD74 (P04233, HLA class II histocompatibility antigen gamma chain)
T5 sequence (P08922 1883-2347 G2032R limits assumed): as the sequence (P08922 1883-2347 limits assumed) above, with G150R counted along it
Procedure, shortened: as §3

[5] = molecular target: T6, Ba/F3 cells EML4-ALK L1196M/G1202R (variant 1) (Homo sapiens, UniProt Q9UM73, G1202R/L1196M); assay: Ba/F3 cell proliferation assay, EML4-ALK L1196M/G1202R (variant 1); type: cell-based; conditions: 72 hours, CellTiter-Glo
T6 construct: echinoderm microtubule-associated protein-like 4 (EML4) gene and the ALK tyrosine kinase domain; host or cells: Ba/F3 (RIKEN), retroviral pMSCV-puro; the other entry of the earlier key: EML4 (Q9HC35, Echinoderm microtubule-associated protein-like 4)
T6 sequence (Q9UM73 with tags, fused parts or gaps L1196M/G1202R): as the sequence (Q9UM73 with tags, fused parts or gaps) above, with L635M, G641R counted along it
Procedure, shortened: as §2

ALK L1196M/G1202R = molecular target: T7, ALK L1196M/G1202R (Homo sapiens, UniProt Q9UM73, G1202R/L1196M); assay: Biochemical kinase assay, ALK L1196M/G1202R kinase domain; conditions: apparent inhibitory constant, Morrison equation; ATP 2 mM in substrate solution; read-out: ALK-L1196M-G1202R Ki^app
T7 construct: purchased SignalChem A19-12NG
T7 sequence (Q9UM73 1116-1392 L1196M/G1202R limits assumed): as the sequence (Q9UM73 1116-1392 limits assumed) above, with L81M, G87R counted along it
Procedure, shortened: as §1

ROS1-wt = molecular target: T8, ROS1-wt (Homo sapiens, UniProt P08922); assay: Biochemical kinase assay, ROS1-wt kinase domain; conditions: apparent inhibitory constant, Morrison equation; ATP 2 mM in substrate solution; read-out: ROS1-wt Ki^app
T8 construct: purchased Carna 08-163
T8 sequence (P08922 1945-2222 limits assumed): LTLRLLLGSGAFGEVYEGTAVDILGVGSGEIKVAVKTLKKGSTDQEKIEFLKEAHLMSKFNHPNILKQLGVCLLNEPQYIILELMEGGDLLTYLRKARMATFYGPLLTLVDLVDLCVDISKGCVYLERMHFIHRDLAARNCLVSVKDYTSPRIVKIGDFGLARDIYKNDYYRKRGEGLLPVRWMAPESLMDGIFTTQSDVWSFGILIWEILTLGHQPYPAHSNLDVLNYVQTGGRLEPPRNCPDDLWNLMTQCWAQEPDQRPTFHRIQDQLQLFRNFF
Procedure, shortened: (§4)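 Compounds, as 100-fold DMSO stocks, were dispensed first, then substrate mix was added (ATP 2 mM, AQT0101 26 μM, in 50 mM HEPES pH 7.5/10 mM MgCl2). Reactions ran at 30 °C with fluorescence logged every 2 min over 120 min. Apparent inhibition constants came from fitting rates to Morrison's tight-binding equation.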

Ba/F3 cells TPM3-TRKA = molecular target: T9, Ba/F3 cells TPM3-TRKA (Homo sapiens, UniProt P04629); assay: Ba/F3 cell proliferation assay, TPM3-TRKA; type: cell-based; conditions: 72 hours, CellTiter-Glo, read-out: TPM3-NTRK1-wt IC50
T9 construct: host or cells: Ba/F3 (RIKEN), retroviral pMSCV-puro; the other entry of the earlier key: TPM3 (P06753, Tropomyosin alpha-3 chain)
T9 sequence (P04629 510-796 limits assumed): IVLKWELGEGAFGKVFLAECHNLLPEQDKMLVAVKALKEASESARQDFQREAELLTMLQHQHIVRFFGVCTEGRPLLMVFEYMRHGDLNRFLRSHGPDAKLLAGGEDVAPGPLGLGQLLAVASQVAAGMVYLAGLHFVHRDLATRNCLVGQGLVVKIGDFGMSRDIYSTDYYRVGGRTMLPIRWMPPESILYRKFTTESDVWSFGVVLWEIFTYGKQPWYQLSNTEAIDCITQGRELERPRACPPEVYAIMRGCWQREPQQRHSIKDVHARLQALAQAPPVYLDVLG
Procedure, shortened: as §2

ROS1-G2032R = molecular target: T10, ROS1-G2032R (Homo sapiens, UniProt P08922, G2032R); assay: Biochemical kinase assay, ROS1-G2032R kinase domain; conditions: apparent inhibitory constant, Morrison equation; ATP 2 mM in substrate solution; read-out: ROS1-G2032R Ki^app
T10 construct: purchased SignalChem R14-12BG
T10 sequence (P08922 1945-2222 G2032R limits assumed): as the sequence (P08922 1945-2222 limits assumed) above, with G88R counted along it
Procedure, shortened: as §4

T1 sequence (P04629 510-781 limits assumed): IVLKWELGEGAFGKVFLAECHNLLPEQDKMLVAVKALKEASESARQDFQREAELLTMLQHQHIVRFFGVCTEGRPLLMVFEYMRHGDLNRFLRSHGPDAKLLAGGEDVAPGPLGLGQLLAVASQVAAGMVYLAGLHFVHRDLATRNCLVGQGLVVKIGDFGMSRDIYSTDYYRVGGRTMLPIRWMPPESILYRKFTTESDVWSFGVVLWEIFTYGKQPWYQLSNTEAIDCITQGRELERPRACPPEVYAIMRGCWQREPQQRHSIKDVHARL

Structure (SMILES) | Ki (TRKA-wt) [nM] | IC50 [1] [nM] | TPM3-NTRK1-wt/CD74-ROS1-G2032R selectivity ratio [2] | TPM3-NTRK1-wt/CD74-ROS1-wt selectivity ratio [2] | TPM3-NTRK1-wt/EML4-ALK-L1196M-G1202R selectivity ratio [2] | TPM3-NTRK1-wt/EML4-ALK-wt selectivity ratio [2] | IC50 [3] [nM] | Ki (ALK-wt) [nM] | IC50 [4] [nM] | IC50 [5] [nM] | Ki (ALK L1196M/G1202R) [nM] | Ki (ROS1-wt) [nM] | IC50 (Ba/F3 cells TPM3-TRKA) [nM] | Ki (ROS1-G2032R) [nM]
C[C@H]1Oc2cc(cnc2N)-c2c(C#N)noc2Cn2nccc2-c2ccc(F)cc21 [Example 20, (19R)-22-amino-16-fluoro-19-methyl-5,20-dioxa-4,8,9,23-tetraazapentacyclo[19.3.1.0^2,^6.0^8,^12.0^13,^18]pentacosa-1(24),2(6),3,9,11,13(18), 4,16,21 (25),22-decaene-3-carbonitrile] | > 500 | 50 to 500 | A (bin A for very high selectivity, ratio >30-fold) | A (bin A for very high selectivity, ratio >30-fold) | C (bin C for moderate selectivity, ratio ≥1) | A (bin A for very high selectivity, ratio >30-fold) | 0.1 to 50 | < 50 | 50 to 500 | > 500 | 50 to 500 | < 50 | > 500 | 50 to 500
CCc1noc2c1-c1cnc(N)c(c1)O[C@H](C)c1cc(F)ccc1-c1ccnn1C2 [Example 21, (19R)-3-ethyl-16-fluoro-19-methyl-5,20-dioxa-4,8,9,23-tetraazapentacyclo[19.3.1.0^2,^6.0^8,^12.0^13,^18]pentacosa-1(24),2(6),3,9,11,13,15,17,21 (25),22-decaen-22-amine] | 50 to 500 | 0.1 to 50 | B (bin B for high selectivity, ratio >10-fold) | A (bin A for very high selectivity, ratio >30-fold) | C (bin C for moderate selectivity, ratio ≥1) | A (bin A for very high selectivity, ratio >30-fold) | 0.1 to 50 | < 50 | 0.1 to 50 | 50 to 500 | < 50 | < 50 | 50 to 500 | < 50
CCc1noc2c1-c1cnc(N)c(c1)O[C@H](C)c1cc(F)ccc1-c1nn(C)nc1C2 [Example 22, (19R)-3-ethyl-16-fluoro-10,19-dimethyl-5,20-dioxa-4,9,10,11,23-pentaazapentacyclo[19.3.1.0^2,^6.0^8,^12.0^13,^18]pentacosa-1(24),2(6),3,8,11,13,15,17,21(25),22-decaen-22-amine] | 50 to 500 | 0.1 to 50 | A (bin A for very high selectivity, ratio >30-fold) | A (bin A for very high selectivity, ratio >30-fold) | C (bin C for moderate selectivity, ratio ≥1) | B (bin B for high selectivity, ratio >10-fold) | 0.1 to 50 | < 50 | 0.1 to 50 | 50 to 500 | < 50 | < 50 | 50 to 500 | < 50
CCc1noc2c1-c1cnc(N)c(c1)O[C@H](C)c1cc(F)ccc1-c1cn(C)nc1C2 [Example 23, (19R)-3ethyl-16-fluoro-10,19-dimethyl-5,20-dioxa-4,9,10,23-tetraazapentacyclo[19.3.1.0^2,^6.0^8,^12.0^13,^18]pentacosa-1(24),2(6),3,8,11,13,15,17,21(25),22-decaen-22-amine] | 50 to 500 | 0.1 to 50 | A (bin A for very high selectivity, ratio >30-fold) | A (bin A for very high selectivity, ratio >30-fold) | C (bin C for moderate selectivity, ratio ≥1) | B (bin B for high selectivity, ratio >10-fold) | 0.1 to 50 | < 50 | 0.1 to 50 | 50 to 500 | < 50 | < 50 | 50 to 500 | < 50
C[C@H]1Oc2cc(cnc2N)-c2c(cnn2CC(F)F)Cc2nn(C)nc2-c2ccc(F)cc21 [Example 24, (19R)-3-(2,2-difluoroethyl)-16-fluoro-10,19-dimethyl-20oxa3,4,9,10,11,23-hexaazapentacyclo[19.3.1.0^2,^6.0^8,^12.0^13,^18]pentacosa-1(24),2(6),4,8,11,13,15,17,21 (25),22-decaen-22-amine] | > 500 | 0.1 to 50 | A (bin A for very high selectivity, ratio >30-fold) | A (bin A for very high selectivity, ratio >30-fold) | B (bin B for high selectivity, ratio >10-fold) | A (bin A for very high selectivity, ratio >30-fold) | 0.1 to 50 | < 50 | 0.1 to 50 | 50 to 500 | < 50 | < 50 | > 500 | < 50
